Measured values published in the OligoGym collection.
Where “and” joins values, the source holds several entries; their conditions need not be identical. Equal values may be shown once. After the bases stand the sugars from the 5' end (letter, count) and the backbone: PS all phosphorothioate, else s phosphorothioate and o phosphodiester by linkage. Methylation of C is not given here. k = constrained ethyl (cEt); d = 2'-deoxy (DNA)

Target: MALAT1
Details: ASO, A431, 0.005 µM

TCACAAGGCAAATCGC (sugars k3 d10 k3, PS) was tested, and the target mRNA inhibition was 7%.

For TCCCTTTACACCTCAG (sugars k3 d10 k3, PS), the target mRNA inhibition was 25%.

AAGAGCATTGGAGATC (sugars k3 d10 k3, PS) was tested, and the target mRNA inhibition was 33%.

In the case of AAGCCGCCTGCTACCT (sugars k3 d10 k3, PS), the target mRNA inhibition is reported as -16%.

AAATCGGAGCAGCACG (sugars k3 d10 k3, PS) showed a target mRNA inhibition of 16%.

In the case of TGTATATAGTTCAAAG (sugars k3 d10 k3, PS), the target mRNA inhibition is reported as 9%.

In the case of CCCACAAGGATCCAAG (sugars k3 d10 k3, PS), the target mRNA inhibition is reported as 9%.

Work on GTTAACAGCTGCCTGC (sugars k3 d10 k3, PS) yielded a target mRNA inhibition of 7%.

Work on TTACCAACCACTCGCT (sugars k3 d10 k3, PS) yielded a target mRNA inhibition of 2%.

AGGGCTTTACTTTCCA (sugars k3 d10 k3, PS) gave a target mRNA inhibition of -5%.

Work on GCGGCCCCCCAGTTGC (sugars k3 d10 k3, PS) yielded a target mRNA inhibition of -16%.

TCCCTGAAGGTGTTCG (sugars k3 d10 k3, PS) was tested, and the target mRNA inhibition was 18%.

In the case of CTGAAGTTCTCCTGAG (sugars k3 d10 k3, PS), the target mRNA inhibition is reported as 38%.

TGAGGGACAGTAGGTA (sugars k3 d10 k3, PS) was tested, and the target mRNA inhibition was 18%.

GCTGTGGTTTTAATAC (sugars k3 d10 k3, PS) was tested, and the target mRNA inhibition was 49% and 57%.

In the case of AACCCCAAGACCAAAC (sugars k3 d10 k3, PS), the target mRNA inhibition is reported as 11%.

For CAATATTTGCCCCTCC (sugars k3 d10 k3, PS), the target mRNA inhibition was 30%.

In the case of ACCTTAACATCTTGTT (sugars k3 d10 k3, PS), the target mRNA inhibition is reported as 15%.

With AGCCTTCGGTGCCTTT (sugars k3 d10 k3, PS) the target mRNA inhibition was 5%.

In the case of TCCCAACCGTAACAGG (sugars k3 d10 k3, PS), the target mRNA inhibition is reported as 2%.

Sequence CTCCGTGTGGTTGCCA (sugars k3 d10 k3, PS) has a target mRNA inhibition of 24%.

In the case of GCCGACCTCACGGATT (sugars k3 d10 k3, PS), the target mRNA inhibition is reported as 45%.

Work on CGGTACACTCCTTCTC (sugars k3 d10 k3, PS) yielded a target mRNA inhibition of 40%.

AGCAACTCTTCTGATA (sugars k3 d10 k3, PS) was tested, and the target mRNA inhibition was 30%.

ACTAGCACCTGCAGAG (sugars k3 d10 k3, PS) was tested, and the target mRNA inhibition was 23%.

Work on TAGTAACCTATTGACT (sugars k3 d10 k3, PS) yielded a target mRNA inhibition of -36%.

With GGATGAAATGCCTCTG (sugars k3 d10 k3, PS) the target mRNA inhibition was 24%.

Work on TAAATTGATGGGCTTT (sugars k3 d10 k3, PS) yielded a target mRNA inhibition of 37%.

TTTTACCAACCACTCG (sugars k3 d10 k3, PS) gave a target mRNA inhibition of 31%.

For AACGGGTCATCAAACA (sugars k3 d10 k3, PS), the target mRNA inhibition was -25%.

Sequence CTATTCCTTTCATAGA (sugars k3 d10 k3, PS) has a target mRNA inhibition of -11%.

With GATGGACATTGCCTCT (sugars k3 d10 k3, PS) the target mRNA inhibition was 37%.

ACGGTTGAGAAGTGGC (sugars k3 d10 k3, PS) was tested, and the target mRNA inhibition was 22%.

Sequence TAAGGAGACAGCTTTC (sugars k3 d10 k3, PS) has a target mRNA inhibition of 16%.

With GACCAACCCCCAGTTC (sugars k3 d10 k3, PS) the target mRNA inhibition was 3%.

In the case of CACAAATACGACTGCT (sugars k3 d10 k3, PS), the target mRNA inhibition is reported as 24%.

Sequence CTTACTTGATAATACA (sugars k3 d10 k3, PS) has a target mRNA inhibition of 35%.

In the case of CAATTACCTAAACCCA (sugars k3 d10 k3, PS), the target mRNA inhibition is reported as 20%.

In the case of GATCGCCTTCAAATTA (sugars k3 d10 k3, PS), the target mRNA inhibition is reported as 39%.

Sequence AAGTGGTTGCCCGCTT (sugars k3 d10 k3, PS) has a target mRNA inhibition of 22%.

For TGATCTGACTTTGTAT (sugars k3 d10 k3, PS), the target mRNA inhibition was 47%.

For TCCTAGCTTCACCACC (sugars k3 d10 k3, PS), the target mRNA inhibition was 44%.

In the case of TCGCATCACCGGAATT (sugars k3 d10 k3, PS), the target mRNA inhibition is reported as 4%.

Sequence GCACAGCGGTACACTC (sugars k3 d10 k3, PS) has a target mRNA inhibition of 9%.

CTTCCGCCGCCTCTTA (sugars k3 d10 k3, PS) showed a target mRNA inhibition of 9%.

CTCAATTTGGCTATCA (sugars k3 d10 k3, PS) was tested, and the target mRNA inhibition was 60% and 80%.

Work on GTCTCGGGCTGCAGGC (sugars k3 d10 k3, PS) yielded a target mRNA inhibition of -6%.

CCCTTCCCTATATAAG (sugars k3 d10 k3, PS) gave a target mRNA inhibition of 5%.

In the case of CTATAAGGACAGCTAA (sugars k3 d10 k3, PS), the target mRNA inhibition is reported as 4%.

For GGGAACACAACTTTTA (sugars k3 d10 k3, PS), the target mRNA inhibition was 33%.

In the case of ACAGGAAGGCTCCATG (sugars k3 d10 k3, PS), the target mRNA inhibition is reported as 25%.

For AGCTTCAACTGGGAAT (sugars k3 d10 k3, PS), the target mRNA inhibition was 13%.

Sequence CTTCTGGAAAAGCTAG (sugars k3 d10 k3, PS) has a target mRNA inhibition of 8%.

GATATTGTGCTGTTAC (sugars k3 d10 k3, PS) was tested, and the target mRNA inhibition was -17%.

In the case of CCTGAAGACAGATTAG (sugars k3 d10 k3, PS), the target mRNA inhibition is reported as 24%.

GTATTTATAGACGGAG (sugars k3 d10 k3, PS) was tested, and the target mRNA inhibition was 0%.

TTTAAAAAGGCTCGAT (sugars k3 d10 k3, PS) showed a target mRNA inhibition of 28%.

GGTTATGCTTATTCCC (sugars k3 d10 k3, PS) was tested, and the target mRNA inhibition was 37%.

TATCAATTCACCAAGG (sugars k3 d10 k3, PS) showed a target mRNA inhibition of 1%.

TATCACTCAGCTGGAT (sugars k3 d10 k3, PS) gave a target mRNA inhibition of 34%.

TAAATCCCTTTACACC (sugars k3 d10 k3, PS) was tested, and the target mRNA inhibition was 12%.

AACAAGTAAGCCCCAC (sugars k3 d10 k3, PS) gave a target mRNA inhibition of 11%.

For TGCAGGCAAATTAATG (sugars k3 d10 k3, PS), the target mRNA inhibition was 11%.

For GTATGCTGATAAACTC (sugars k3 d10 k3, PS), the target mRNA inhibition was 52%.

GAGCCAAGCACTCATA (sugars k3 d10 k3, PS) gave a target mRNA inhibition of 6%.

ACCCCCGGAACTTTTA (sugars k3 d10 k3, PS) was tested, and the target mRNA inhibition was 9%.

For TACTTAGCTGTGGTTT (sugars k3 d10 k3, PS), the target mRNA inhibition was 23%.

GAAAGTCCTTCACATT (sugars k3 d10 k3, PS) showed a target mRNA inhibition of 22%.

For TACTCTTGATCTTGAA (sugars k3 d10 k3, PS), the target mRNA inhibition was 46%.

In the case of CCCACAAACTTGCCAT (sugars k3 d10 k3, PS), the target mRNA inhibition is reported as 1%.

Sequence CAACTCTTCTGATAAC (sugars k3 d10 k3, PS) has a target mRNA inhibition of 16%.

Work on AGGAAGGCTCCATGGT (sugars k3 d10 k3, PS) yielded a target mRNA inhibition of 11%.

Work on GAATACTCTTCCAAGG (sugars k3 d10 k3, PS) yielded a target mRNA inhibition of 16%.

With ACCCAGTGGCTCATAT (sugars k3 d10 k3, PS) the target mRNA inhibition was 16%.

GAATCCTGTCTGCTGC (sugars k3 d10 k3, PS) gave a target mRNA inhibition of 33%.

GCTAGCTTGGCCAAGT (sugars k3 d10 k3, PS) gave a target mRNA inhibition of 2%.

In the case of AGTAACTACCAGCCAT (sugars k3 d10 k3, PS), the target mRNA inhibition is reported as 45%.

For CTTAACAGCTTATGGA (sugars k3 d10 k3, PS), the target mRNA inhibition was 30%.

For ACTCGCTTTCCCTGTG (sugars k3 d10 k3, PS), the target mRNA inhibition was 35%.

CCTCATGCTACTCTTC (sugars k3 d10 k3, PS) was tested, and the target mRNA inhibition was 54%.

Sequence CAATGCATTCTAATAG (sugars k3 d10 k3, PS) has a target mRNA inhibition of 18%.

Work on ATCACTTTAGAGGCTT (sugars k3 d10 k3, PS) yielded a target mRNA inhibition of 53%.

With CAATGGACATCTCTTC (sugars k3 d10 k3, PS) the target mRNA inhibition was 49%.

For GCCGCCTGCTACCTTC (sugars k3 d10 k3, PS), the target mRNA inhibition was 12%.

In the case of CTGCTACCTTCATCAC (sugars k3 d10 k3, PS), the target mRNA inhibition is reported as 39%.

AATTACCTAAACCCAC (sugars k3 d10 k3, PS) was tested, and the target mRNA inhibition was 0%.

For AGCAGTAGGGCTTCTC (sugars k3 d10 k3, PS), the target mRNA inhibition was 3%.

ACTCTGATCATAATCT (sugars k3 d10 k3, PS) was tested, and the target mRNA inhibition was 35%.

Sequence TACCCCAACTAAACAT (sugars k3 d10 k3, PS) has a target mRNA inhibition of 18%.

TCTCCGAAGACACAGA (sugars k3 d10 k3, PS) gave a target mRNA inhibition of 0%.

For CTGCATTTACTTGCCA (sugars k3 d10 k3, PS), the target mRNA inhibition was 17%.

In the case of CTCCCCCATTATATTA (sugars k3 d10 k3, PS), the target mRNA inhibition is reported as 31%.

TCCTACCACTCCCAAT (sugars k3 d10 k3, PS) was tested, and the target mRNA inhibition was 30%.

GCTCTAGTTTCTATAA (sugars k3 d10 k3, PS) showed a target mRNA inhibition of 27%.

Work on CCAAGCACTCATATGC (sugars k3 d10 k3, PS) yielded a target mRNA inhibition of 12%.

AAGACTAAAGGCTTCA (sugars k3 d10 k3, PS) showed a target mRNA inhibition of 21%.

For AGTGTGATAGTTCAGG (sugars k3 d10 k3, PS), the target mRNA inhibition was 7%.

For CCTGAAATCCCCTAGG (sugars k3 d10 k3, PS), the target mRNA inhibition was -4%.

For TATAGACCCCTGACTT (sugars k3 d10 k3, PS), the target mRNA inhibition was 42%.

For CAGACAAGATTCATGA (sugars k3 d10 k3, PS), the target mRNA inhibition was 19%.

TGAGTGGTTTTATCTA (sugars k3 d10 k3, PS) was tested, and the target mRNA inhibition was 7%.

For GTGAAAACCCACTCTT (sugars k3 d10 k3, PS), the target mRNA inhibition was 10%.

In the case of CCATAATTGTAGTTAA (sugars k3 d10 k3, PS), the target mRNA inhibition is reported as 7%.

Sequence CTCCCCGCCTGAGCCC (sugars k3 d10 k3, PS) has a target mRNA inhibition of -23%.

CGCCTTTGTGAGGGAG (sugars k3 d10 k3, PS) showed a target mRNA inhibition of -3%.

TGGTTATAGCTTGACA (sugars k3 d10 k3, PS) was tested, and the target mRNA inhibition was 82% and 95%.

TAAGTTTTCAGCAGTA (sugars k3 d10 k3, PS) showed a target mRNA inhibition of -14%.

In the case of TATATAAGGTCAATAG (sugars k3 d10 k3, PS), the target mRNA inhibition is reported as 5%.

Work on GCGAATGGCTTTGTCT (sugars k3 d10 k3, PS) yielded a target mRNA inhibition of 7%.

TCTGATCTGCGGCCCC (sugars k3 d10 k3, PS) showed a target mRNA inhibition of -18%.

ATGCCCACAAGGATCC (sugars k3 d10 k3, PS) was tested, and the target mRNA inhibition was 33%.

Work on GCCATGGAAAGCGAGT (sugars k3 d10 k3, PS) yielded a target mRNA inhibition of 9%.

With AAAGATCGCCTTCAAA (sugars k3 d10 k3, PS) the target mRNA inhibition was 32%.

TTCGCCTTCCCGTACT (sugars k3 d10 k3, PS) gave a target mRNA inhibition of 63%.
